pIC50: −log10 of the molar value.
Columns and labels:
[1] = system: Schaf-Lentiviren des Stammes WLC-1; experiment: Activity against sheep lentivirus (protection from cytopathic effect in SCP cells); format: cell-based; conditions: minimal concentration giving 100% protection from cytopathic effect, 12 days incubation at 37°C, crystal violet staining, visual reading
From the text: (A) Aktivität gegen Schaf-Lentiviren
In diesem Versuch verwendet man Schaf-Lentiviren des Stammes WLC-1, der im Plexus chorioideus (SCP) des Schafs mit 10% fötalem Rinderserum enthaltenden Medium gezüchtet wurde. Die Verbindungen werden in 96 Vertiefungen enthaltenden Platten getestet. Jede Vertiefung enthält 10⁴SCP-Zellen, die 48 Stunden inkubiert wurden. Die Testverbindungen werden, gelöst in Dimethylsulfoxid (DMSO), bis zu einer Endkonzentration von 1% DMSO hinzugefügt, zusammen mit einem Virus-Inokulum, das innert 12 Tagen einen 100%igen cytopathischen Effekt bewirkt. Nach 12-tägiger Inkubation bei 37°C werden die Platten mit Kristallviolett angefärbt. Effekt in den die Testverbindungen enthaltenden Vertiefungen wird visuell durch Vergleich mit lediglich den Virus enthaltenden Vertiefungen und nicht-infizierten Vertiefungen ermittelt. Die Wirksamkeit (MPC) ist die minimale Konzentration der Testverbindung, die einen 100%igen Schutz bewirkt. In diesem Versuch hat DFAC einen MPC von 2,5 µM.

HTLV III (Stamm RF) = experiment: Activity against HIV (p24 antigen capture assay in infected C8166 cells); format: cell-based; conditions: concentration giving 50% protection; C8166 cells infected with 10-fold TCD₅₀, 72 h incubation at 37°C, viral protein 24 antigen in supernatant; read-out: IC₅₀
Procedure: (B) Wirksamkeit gegen HIV
In diesem Versuch verwendet man HTLV III (Stamm RF), gezüchtet in C8166-Zellen (eine menschliche CD4⁺ T-Lymphoblastenlinie), RPM1 1640 Medium mit Bicarbonatpuffer, Antibiotika und 10%igem fötalem Rinderserum. Eine Zellensuspen sion wird mit der 10-fachen TCD₅₀ des Virus infiziert. Man lässt 90 Minuten bei 37°C adsorbieren. Die Zellen werden mit dem Medium gewaschen. Der Versuch wird in 6 ml Gewebekulturröhren durchgeführt. Jedes Rohr enthalt 2 x 10⁵ infizierte Zellen in 1,5 ml Medium. Es werden 15 µl einer Lösung der Substanz in wässrigem Medium oder in DMSO zugesetzt. Nach 72 Stunden Inkubation bei 37°C in einer feuchten 5% CO₂ enthaltenden Atmosphäre werden die Kulturen zentrifugiert. Ein aliquoter Teil des Ueberstandes wird solubilisiert und einem Antigenabfangversuch unterworfen unter Verwendung eines primären Antiserums mit besonderer Reaktivität gegen virales Protein 24 und eines Meerrettich-Peroxidase-Detektionssystems. Die Farbenerzeugung wird spektrophotometrisch gemessen und in Abhängigkeit der Konzentration der Testsubstanz dargestellt. Die einen 50%igen Schutz erzeugende Konzentration (IC₅₀) wird ermittelt. In diesem Test hat DFAC ein IC₅₀ von 1 µM.

**Q.** Which results are given for `Nc1ccn([C@@H]2O[C@H](CO)C[C@@H]2F)c(=O)n1` [DFAC, 1-(2′,3′-Dideoxy-2′-fluor-b-D-arabinofuranosyl)cytosin]?
**A.** MPC [1]: 2,5 µM; pIC50 (HTLV III (Stamm RF)): 6.00
